Assay results: ChEMBL document CHEMBL1201862, “PubChem BioAssay data set” (2004)
Activity calls are given as the source filed them.

What was measured:
Leucine aminopeptidase = target: T1, Leucine aminopeptidase (Plasmodium falciparum 3D7, UniProt Q8IL11); assay: P. falciparum M17LAP inhibitors, primary screen, biochemical, fluorogenic H-Leu-NHMec substrate, 1536-well (AID 1619); assay type: functional
T1 sequence (Q8IL11 whole entry): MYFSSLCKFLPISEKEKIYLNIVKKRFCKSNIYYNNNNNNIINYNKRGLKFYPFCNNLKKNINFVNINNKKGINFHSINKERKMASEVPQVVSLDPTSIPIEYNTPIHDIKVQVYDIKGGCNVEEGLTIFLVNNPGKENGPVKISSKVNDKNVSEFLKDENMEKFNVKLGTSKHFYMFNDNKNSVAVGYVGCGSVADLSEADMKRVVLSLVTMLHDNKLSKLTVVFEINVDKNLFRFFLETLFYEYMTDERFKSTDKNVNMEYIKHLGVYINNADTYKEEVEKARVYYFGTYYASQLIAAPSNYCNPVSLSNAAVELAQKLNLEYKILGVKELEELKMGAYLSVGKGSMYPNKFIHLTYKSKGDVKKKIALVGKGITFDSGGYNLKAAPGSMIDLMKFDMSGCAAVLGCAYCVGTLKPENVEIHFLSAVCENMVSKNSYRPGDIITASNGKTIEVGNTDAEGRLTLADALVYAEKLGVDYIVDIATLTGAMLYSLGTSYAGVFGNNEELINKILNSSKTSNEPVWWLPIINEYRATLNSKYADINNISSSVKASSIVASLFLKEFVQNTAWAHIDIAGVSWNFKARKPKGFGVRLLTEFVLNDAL

[1] = THP-1 cell cytotoxicity, dose response, cytotoxicity control for non-replicating M. tuberculosis project (AID 489025); assay type: functional
[2] = HepG2 cell cytotoxicity, dose response, cytotoxicity control for non-replicating M. tuberculosis project (AID 489018); assay type: functional; conditions: Mycobacterium tuberculosis
[3] = Vero E6 cell cytotoxicity, dose response, cytotoxicity control for non-replicating M. tuberculosis project, secondary assay (AID 492998); assay type: functional, VeroE6; conditions: Vero C1008
cells = assay type: functional
H9c2 = assay: cells; assay type: functional, cell-based; conditions: Rattus norvegicus, H9c2, Myocardium;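 also: confirmatory concentration-response retest of ultra-high-throughput screening hits for modulation of myocardial damage; cell death induced by hydrogen peroxide oxidative stress; compound pretreatment for 60 min then peroxide exposure for 2 h; potency is for protecting the cells against peroxide damage rather than for killing them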
Genome polyprotein = Genome polyprotein (dengue virus type 2, UniProt P29990); assay: flavivirus cap methylation enzyme inhibition – biochemical, confirmation dose response, primary screen (AID 588689); assay type: functional
[4] = NIH-3T3 fibroblast cytotoxicity, dose response, cytotoxicity control, cell-based, fluorescence, Alamar Blue, secondary assay (AID 2327); assay type: functional;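 also: NIH-3T3 mouse fibroblasts cultured with fluconazole at 8 µg/mL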
[5] = fluconazole-exposed Candida albicans growth modulators – fluorescence, retest, confirmation (AID 2467); assay type: functional, cell-based
[6] = microbe, parasite or virus in culture; assay type: functional; conditions: Mycobacterium tuberculosis
Estrogen receptor beta [7] = target: T2, Estrogen receptor beta (Homo sapiens, UniProt Q92731); assay: blockers of SRC-3 recruitment to ERβ – biochemical, ELISA, streptavidin-HRP readout, orthogonal assay, confirmation (AID 1060)
[8] = target: T3, DNA repair and recombination protein RAD54-like (Homo sapiens, UniProt Q92698); assay: RAD54 Holliday junction migration blockers – biochemical, fluorescence, cherry-picked samples, dose series, confirmation (AID 651657); assay type: functional
T3 sequence (Q92698 whole entry): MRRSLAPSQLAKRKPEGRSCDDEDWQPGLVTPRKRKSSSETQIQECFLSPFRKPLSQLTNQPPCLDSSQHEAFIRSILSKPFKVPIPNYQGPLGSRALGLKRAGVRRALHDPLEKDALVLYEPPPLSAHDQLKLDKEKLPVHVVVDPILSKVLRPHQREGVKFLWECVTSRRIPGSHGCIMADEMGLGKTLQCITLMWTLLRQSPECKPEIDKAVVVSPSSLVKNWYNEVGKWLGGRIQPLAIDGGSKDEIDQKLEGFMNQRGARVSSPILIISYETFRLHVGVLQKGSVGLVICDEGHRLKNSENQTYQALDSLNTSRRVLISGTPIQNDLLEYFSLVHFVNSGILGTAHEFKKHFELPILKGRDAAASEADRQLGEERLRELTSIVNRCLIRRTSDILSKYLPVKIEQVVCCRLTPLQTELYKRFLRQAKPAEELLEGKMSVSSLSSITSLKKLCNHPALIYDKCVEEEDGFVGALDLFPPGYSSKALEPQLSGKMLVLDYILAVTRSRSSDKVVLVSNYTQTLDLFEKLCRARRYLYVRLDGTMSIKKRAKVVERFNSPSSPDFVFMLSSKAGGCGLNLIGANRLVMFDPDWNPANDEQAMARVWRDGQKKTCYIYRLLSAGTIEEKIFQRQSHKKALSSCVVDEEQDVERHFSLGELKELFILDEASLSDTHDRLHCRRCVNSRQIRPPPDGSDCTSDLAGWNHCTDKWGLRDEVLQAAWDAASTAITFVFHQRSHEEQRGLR

[9] = target: T4, DNA repair protein RAD52 homolog (Homo sapiens, UniProt P43351); assay type: functional, biochemical
T4 sequence (P43351 whole entry): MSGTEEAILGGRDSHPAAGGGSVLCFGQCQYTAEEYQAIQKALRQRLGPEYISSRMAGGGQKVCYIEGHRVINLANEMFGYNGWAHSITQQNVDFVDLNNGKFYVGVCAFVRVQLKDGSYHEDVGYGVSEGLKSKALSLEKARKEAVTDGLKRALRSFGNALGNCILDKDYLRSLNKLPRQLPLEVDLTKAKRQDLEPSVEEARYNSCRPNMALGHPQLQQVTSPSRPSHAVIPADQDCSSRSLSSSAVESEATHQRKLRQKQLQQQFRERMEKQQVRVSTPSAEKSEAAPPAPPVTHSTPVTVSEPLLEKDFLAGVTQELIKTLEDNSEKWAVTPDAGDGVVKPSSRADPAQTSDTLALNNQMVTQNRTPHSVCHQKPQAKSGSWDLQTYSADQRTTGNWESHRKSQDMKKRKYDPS

[10] = target: T5, Histone-lysine N-methyltransferase NSD2 (Homo sapiens, UniProt O96028); assay type: biochemical
T5 sequence (O96028 whole entry): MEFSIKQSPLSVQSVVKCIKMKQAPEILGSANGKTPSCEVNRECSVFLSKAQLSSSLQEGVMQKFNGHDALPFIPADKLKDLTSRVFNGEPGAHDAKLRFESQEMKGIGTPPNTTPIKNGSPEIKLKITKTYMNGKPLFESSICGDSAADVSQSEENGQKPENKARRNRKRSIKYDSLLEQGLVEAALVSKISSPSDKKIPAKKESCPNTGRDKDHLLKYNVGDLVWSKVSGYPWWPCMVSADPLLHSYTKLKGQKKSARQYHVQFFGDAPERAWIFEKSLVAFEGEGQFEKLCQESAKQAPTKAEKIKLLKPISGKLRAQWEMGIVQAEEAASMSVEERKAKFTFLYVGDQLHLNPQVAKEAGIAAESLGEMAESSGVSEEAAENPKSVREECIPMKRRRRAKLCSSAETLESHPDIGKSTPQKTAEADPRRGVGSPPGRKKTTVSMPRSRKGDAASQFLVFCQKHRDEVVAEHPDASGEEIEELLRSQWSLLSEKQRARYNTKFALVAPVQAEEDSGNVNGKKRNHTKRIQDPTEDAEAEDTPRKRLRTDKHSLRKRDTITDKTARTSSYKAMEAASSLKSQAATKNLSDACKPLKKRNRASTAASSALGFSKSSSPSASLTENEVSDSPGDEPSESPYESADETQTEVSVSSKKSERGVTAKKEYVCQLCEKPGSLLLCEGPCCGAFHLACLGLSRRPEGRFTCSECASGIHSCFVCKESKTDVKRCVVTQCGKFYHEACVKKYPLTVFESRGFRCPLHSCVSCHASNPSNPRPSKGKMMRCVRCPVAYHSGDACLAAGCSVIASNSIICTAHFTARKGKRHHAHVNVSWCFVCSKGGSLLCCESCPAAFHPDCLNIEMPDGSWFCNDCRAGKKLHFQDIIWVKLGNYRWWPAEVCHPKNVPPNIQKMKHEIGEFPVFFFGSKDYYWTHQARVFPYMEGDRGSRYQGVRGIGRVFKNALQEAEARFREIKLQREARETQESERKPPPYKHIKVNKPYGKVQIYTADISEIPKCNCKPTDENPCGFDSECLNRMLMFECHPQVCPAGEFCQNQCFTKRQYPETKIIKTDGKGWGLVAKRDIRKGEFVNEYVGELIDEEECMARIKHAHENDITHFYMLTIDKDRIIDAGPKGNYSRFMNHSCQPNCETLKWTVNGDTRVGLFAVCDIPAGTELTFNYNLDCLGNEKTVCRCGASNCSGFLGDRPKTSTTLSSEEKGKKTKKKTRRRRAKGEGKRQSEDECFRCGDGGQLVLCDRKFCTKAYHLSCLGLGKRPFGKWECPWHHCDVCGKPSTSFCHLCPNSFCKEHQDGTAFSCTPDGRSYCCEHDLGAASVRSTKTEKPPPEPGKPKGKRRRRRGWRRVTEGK

Estrogen receptor beta [11] = target: T2, Estrogen receptor beta
[12] = CellTiter-Glo luminescence survival assay, SW480 colon tumor line, concentration-response curve, half-maximal inhibitory concentration (AID 1117338); assay type: functional
[13] = RKO cell viability reduction, dose response, CellTiter-Glo luminescence (AID 1117322); assay type: functional
[14] = cytotoxicity toward HCT116 cells – cell-based, CellTiter-Glo luminescence, IC50, dose response (AID 1117332); assay type: functional; conditions: HCT-116
[15] = SNU-C1 cell viability reduction, dose response, CellTiter-Glo luminescence (AID 1117323); assay type: functional, cell-based
[16] = cytotoxicity toward Colo320 cells – cell-based, CellTiter-Glo luminescence, IC50, dose response (AID 1117334); assay type: functional; conditions: COLO 320
[17] = cytotoxicity toward HT-29 cells – cell-based, CellTiter-Glo luminescence, IC50, dose response (AID 1117330); assay type: functional
[18] = Reduced DLD-1 viability, concentration-response, CellTiter-Glo luminescence (AID 1117352); assay type: functional
[19] = HCT116 cell viability decrease, GSK3B pretreatment – CellTiter-Glo, IC50, dose response (AID 1117339); assay type: functional; conditions: HCT-116
[20] = A549 cell cytotoxicity, dose response, cytotoxicity control, plate reader, cherry-pick, antagonist series (AID 743412); assay type: functional, cell-based
[21] = blockade of melanocortin 4 receptor signaling – cell-based, plate reader, cherry pick, counter-screen for LGR2 antagonist project, dose response (AID 743444); assay type: functional;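 also: transfected HEK 293 cells stimulated with alpha-MSH peptide; potency of inhibitors of the alpha-MSH evoked signal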

T2 sequence (Q92731 whole entry): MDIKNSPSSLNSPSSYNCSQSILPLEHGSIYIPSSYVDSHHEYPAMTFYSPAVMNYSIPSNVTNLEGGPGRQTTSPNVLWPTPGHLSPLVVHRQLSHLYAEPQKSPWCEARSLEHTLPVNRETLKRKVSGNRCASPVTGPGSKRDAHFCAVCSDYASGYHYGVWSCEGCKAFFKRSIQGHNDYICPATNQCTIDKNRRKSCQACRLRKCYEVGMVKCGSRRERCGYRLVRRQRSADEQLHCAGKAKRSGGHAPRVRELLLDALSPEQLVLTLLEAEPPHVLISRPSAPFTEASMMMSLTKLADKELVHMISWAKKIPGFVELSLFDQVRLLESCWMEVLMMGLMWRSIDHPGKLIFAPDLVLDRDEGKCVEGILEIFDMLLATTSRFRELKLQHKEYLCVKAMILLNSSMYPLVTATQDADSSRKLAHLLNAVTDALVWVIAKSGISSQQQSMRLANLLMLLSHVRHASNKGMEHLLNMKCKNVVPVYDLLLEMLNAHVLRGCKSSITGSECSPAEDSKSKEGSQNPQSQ
Sequence of Genome polyprotein (P29990 2492-3391 limits assumed): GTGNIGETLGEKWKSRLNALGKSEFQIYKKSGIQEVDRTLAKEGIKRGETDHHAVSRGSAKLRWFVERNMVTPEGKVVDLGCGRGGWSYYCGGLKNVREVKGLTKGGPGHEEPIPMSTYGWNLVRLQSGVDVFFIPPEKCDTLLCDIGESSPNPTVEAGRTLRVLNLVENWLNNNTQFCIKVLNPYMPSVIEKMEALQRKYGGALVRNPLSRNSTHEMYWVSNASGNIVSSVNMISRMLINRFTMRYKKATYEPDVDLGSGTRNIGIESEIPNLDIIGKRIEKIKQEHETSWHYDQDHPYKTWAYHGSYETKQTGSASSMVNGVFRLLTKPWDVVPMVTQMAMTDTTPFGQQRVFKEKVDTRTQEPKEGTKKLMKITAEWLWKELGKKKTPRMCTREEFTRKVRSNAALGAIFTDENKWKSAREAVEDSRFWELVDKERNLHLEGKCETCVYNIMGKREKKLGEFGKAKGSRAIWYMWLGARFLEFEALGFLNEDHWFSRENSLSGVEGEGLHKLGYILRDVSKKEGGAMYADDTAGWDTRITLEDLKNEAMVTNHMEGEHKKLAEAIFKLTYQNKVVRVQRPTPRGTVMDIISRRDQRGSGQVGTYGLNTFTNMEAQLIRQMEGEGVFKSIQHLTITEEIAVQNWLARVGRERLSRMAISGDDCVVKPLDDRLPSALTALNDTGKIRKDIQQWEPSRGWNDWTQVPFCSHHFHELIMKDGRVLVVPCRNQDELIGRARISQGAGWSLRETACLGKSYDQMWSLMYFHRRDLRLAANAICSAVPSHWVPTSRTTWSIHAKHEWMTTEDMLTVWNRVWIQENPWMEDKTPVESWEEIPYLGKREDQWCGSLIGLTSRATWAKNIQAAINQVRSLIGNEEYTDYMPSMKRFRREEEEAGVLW

Structure (SMILES) | IC50 [12] | IC50 [13] | IC50 [14] | IC50 [15] | IC50 [16] | IC50 [17] | IC50 [18] | IC50 [19] | other results
O=C(O)COc1ccccc1/C=C1\SC(=O)N(Cc2ccc(F)cc2)C1=O | – | – | – | – | – | – | – | – | IC50 (Leucine aminopeptidase): 34.8 µM (active)
CCOC(=O)Cc1c(C)nc2c(-c3ccc(Cl)cc3)cnn2c1O | – | – | – | – | – | – | – | – | CC50 [1]: 29 µM (active); CC50 [2]: > 20 µM (active); CC50 [3]: 17.5 µM (active); IC50 (cells): 6.28 µM (active); IC50 (H9c2): > 79 µM (inactive)
O=C(O)CCc1nnc(SCC(=O)Nc2ccc(Br)cc2)nc1O | – | – | – | – | – | – | – | – | IC50 (Leucine aminopeptidase): 2.45 µM (active)
CCCCCCSc1nc(O)c(C2OC(=O)c3c2ccc(OC)c3OC)c(=O)n1CC (stereo unspecified) | – | – | – | – | – | – | – | – | IC50 (Leucine aminopeptidase): 3 µM (active); IC50 (Genome polyprotein): 56.9 µM (active)
CCCCN(C)S(=O)(=O)c1ccc(C(=O)Nc2nnc(-c3ccco3)o2)cc1 | – | – | – | – | – | – | – | – | EC50 [4]: > 160 µM (inconclusive); EC50 [5]: 2.63 µM (active); CC50 [6]: 11.6 µM (active); CC50 [1]: 10.5 µM (active); CC50 [2]: 12.5 µM (active); CC50 [3]: 6.27 µM (active); IC50 (cells): 6.64 µM (active)
COCCOC(=O)c1c(C)oc2ccc(NS(=O)(=O)c3ccc(C(=O)O)cc3)cc12 | – | – | – | – | – | – | – | – | IC50 (Estrogen receptor beta [7]): 3.82 µM (not active)
CCN(CC)CCNc1nc(SC)nc2sc3c(c12)CCN(C)C3 | – | – | – | – | – | – | – | – | AC50 [8]: 95.3 µM (active); AC50 [9]: 5.18 µM (active); AC50 [10]: > 20 µM (inactive)
Cc1cc(C)c(C(=O)COc2cccnc2[N+](=O)[O-])cc1C | – | – | – | – | – | – | – | – | IC50 (Estrogen receptor beta [11]): 7.21 µM (active); IC50 (Estrogen receptor beta [7]): > 50 µM (not active)
COC(=O)C1=C(C)NC(C)=C(C(=O)O[C@@H]2CCCN(Cc3ccccc3)C2)[C@@H]1c1cccc([N+](=O)[O-])c1 | > 20 µM (inactive) | 8.05 µM (inactive) | 4.28 µM (active) | 5.76 µM (inactive) | 19.5 µM (inactive) | 5.27 µM (inactive) | 7.96 µM (inactive) | 5.31 µM (inactive) | –
O=C(Cc1ccncc1)NCC[C@H]1CC[C@H](NC(=O)C2CCCC2)[C@H](CO)O1 | – | – | – | – | – | – | – | – | AC50 [20]: > 52 µM (inactive); AC50 [21]: 42.1 µM (active)
CC1(C)[C@H](C=C(Cl)Cl)[C@@H]1C(=O)OCc1c(F)c(F)cc(F)c1F | > 20 µM (inactive) | > 20 µM (inactive) | > 20 µM (inactive) | > 20 µM (inactive) | > 20 µM (inactive) | > 20 µM (inactive) | > 20 µM (inactive) | > 20 µM (inactive) | –
CCCCC[C@@H](O)CC[C@H]1[C@@H]2Cc3cccc(OCC(=O)O)c3C[C@@H]2C[C@@H]1O | > 20 µM (inactive) | > 20 µM (inactive) | > 20 µM (inactive) | > 20 µM (inactive) | > 20 µM (inactive) | > 20 µM (inactive) | > 20 µM (inactive) | > 20 µM (inactive) | –
CCCCN1CCCC1C(=O)Nc1c(C)cc(C)cc1C (stereo unspecified) [BUMECAINE] | > 20 µM (inactive) | > 20 µM (inactive) | > 20 µM (inactive) | > 20 µM (inactive) | > 20 µM (inactive) | > 20 µM (inactive) | > 20 µM (inactive) | > 20 µM (inactive) | –
